Our source for the EC50 values is PubChem BioAssay AID588407 (The Scripps Research Institute Molecular Screening Center, 2011).

The structures appear in SMILES notation. pEC50: −log10 of the molar value. Calls of active or inactive are those of the source. The rule behind the calls is not given here.

The experiment deals with Mu-type opioid receptor (Homo sapiens) + Delta-type opioid receptor (Homo sapiens) (UniProt P35372+P41143). The experiment is described as follows: OPRM1-OPRD1 heterodimer agonist potency – cell-based, luminescence, dose response (AID 588407).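 Note: potency of agonists raising the heterodimer signal.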 As to conditions: cells, MOR-DOR heterodimerization.
Chain of Mu-type opioid receptor (Homo sapiens) + Delta-type opioid receptor (Homo sapiens) (P35372 whole entry, looked up): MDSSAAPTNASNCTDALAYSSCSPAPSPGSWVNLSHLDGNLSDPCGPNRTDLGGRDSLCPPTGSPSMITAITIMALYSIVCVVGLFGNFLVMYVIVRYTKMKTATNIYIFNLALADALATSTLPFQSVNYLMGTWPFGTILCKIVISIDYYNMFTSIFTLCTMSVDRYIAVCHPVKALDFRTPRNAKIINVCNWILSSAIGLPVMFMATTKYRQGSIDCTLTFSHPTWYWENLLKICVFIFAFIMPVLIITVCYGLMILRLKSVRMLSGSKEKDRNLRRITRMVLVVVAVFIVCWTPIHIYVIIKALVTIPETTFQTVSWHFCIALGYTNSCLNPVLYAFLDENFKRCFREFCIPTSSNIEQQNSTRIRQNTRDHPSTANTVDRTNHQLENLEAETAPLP
Chain of Mu-type opioid receptor (Homo sapiens) + Delta-type opioid receptor (Homo sapiens) (P41143 whole entry, looked up): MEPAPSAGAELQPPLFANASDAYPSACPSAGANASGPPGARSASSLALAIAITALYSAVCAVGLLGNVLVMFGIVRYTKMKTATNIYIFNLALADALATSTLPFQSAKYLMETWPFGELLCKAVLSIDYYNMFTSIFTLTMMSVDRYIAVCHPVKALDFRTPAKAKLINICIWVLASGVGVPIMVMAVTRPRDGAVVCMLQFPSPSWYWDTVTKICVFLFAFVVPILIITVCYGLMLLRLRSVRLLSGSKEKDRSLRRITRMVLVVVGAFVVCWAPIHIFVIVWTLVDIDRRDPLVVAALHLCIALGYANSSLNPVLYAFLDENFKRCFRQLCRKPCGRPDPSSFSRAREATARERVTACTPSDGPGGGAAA
Take `COc1cc(Br)cc(/C=N/NC(=O)Cc2ccc(C(F)(F)F)cc2[N+](=O)[O-])c1O`: the EC50 entry was “inactive”.

Regarding `COc1ccc(/C=C/C(=O)NC(=S)NCCc2ccc(OC)c(OC)c2)cc1`, the negative logarithm of the EC50 (pEC50) is 5.06.

For `Cc1cc(/C=C2\SC(=S)N(C)C2=O)c(C)n1-c1ccc(O)cc1`, the EC50 entry is “inactive”.

On to `CCc1ccc2nc(N(CCCN(C)C)C(=O)c3ccc(S(=O)(=O)N4CCc5ccccc5C4)cc3)sc2c1`, for which the EC50 result is “inactive”.

On to `CN(C)C(CNC(=O)Cc1ccc([N+](=O)[O-])cc1)c1ccccc1` (stereo not drawn), for which the negative-log EC50 (pEC50) is 5.11.

Regarding `CN1CCN(c2ccc(NC(=O)c3ccc(-c4ccccc4F)o3)cc2)CC1`, the pEC50 is 5.49.

With `CCOC(=O)C1(CCc2ccccc2)CCN(Cc2ccc(NC(C)=O)cc2)CC1`, the negative logarithm of the EC50 (pEC50) is 6.64.

For `O=C(CSc1ccc(Cl)cc1)Nc1ccc(-c2nc3ccccc3[nH]2)cc1`, the EC50 is > 92.5 µM (inactive).

Turning to `CN1C2C=C(N(CCc3ccccc3)C(=O)c3ccc(Cl)cc3)CC1CC2` (stereo not drawn), the EC50 result was “inactive”.

Regarding `COc1ccc(C(C(=O)NC2CCCCC2)N(C(=O)Cc2c[nH]c3ccccc23)c2ccc(NC(C)=O)cc2)cc1OC` (stereo not drawn), the EC50 was > 92.5 µM (inactive).

In the case of `Cc1ccc2nc(N(CCCN(C)C)C(=O)c3ccc(S(=O)(=O)N4CCc5ccccc5C4)cc3)sc2c1`, the negative logarithm of the EC50 (pEC50) was 5.05.

Regarding `Cc1ccc2cc(C(c3nnnn3Cc3ccccc3)N3CCc4ccccc43)c(=O)[nH]c2c1` (stereo not drawn), the EC50 result is “inactive”.

Turning to `COc1ccc2c(Cl)c(-c3nnc(SCC(=O)c4ccccc4)n3C)sc2c1`, the pEC50 was 6.03.

For `COc1cc2c3cc1Oc1cc(ccc1O)C[C@@H]1c4c(cc(OC)c(O)c4Oc4ccc(cc4)C[C@H]3N(C)CC2)CCN1C`, the EC50 entry was “inactive”.

Turning to `Cc1ccc2c(Cl)c(Cc3ccccc3)c(=S)[nH]c2n1`, the EC50 entry is “inactive”.

As to `CN(C)C(CNC(=S)Nc1cccc(Cl)c1)c1ccccc1` (stereo not drawn), the pEC50 was 6.43.

In the case of `CCc1cccc(C)c1NC(=S)NCC(c1cccnc1)N(C)C` (stereo not drawn), the pEC50 was 5.43.

Turning to `CCN(c1nc(N)c(C(=O)N=C(N)N)nc1Cl)C(C)C`, the negative logarithm of the EC50 (pEC50) was 5.02.

As for `CCOC(=O)C1(CCOc2ccccc2)CCN(Cc2cnc(C)s2)CC1`, the pEC50 was 5.10.

For `CN(C)C(CNC(=O)CSC(=S)N1CCCC1)c1ccccc1` (stereo not drawn), the pEC50 was 6.01.

In the case of `Cc1ccccc1N1CC(O)(c2ccccc2)[N+]2=C1SCC2` (stereo not drawn), the pEC50 is 5.67.

On to `CCOc1ccc(Nc2c3ccccc3nc3ccccc23)cc1`, for which the EC50 entry was “inactive”.

For the compound `COc1ccc(C(CNC(=O)/C=C/c2c(Cl)nc3ccccn23)N(C)C)cc1` (stereo not drawn), the negative logarithm of the EC50 (pEC50) is 5.12.

For `Cc1nc(N2CCN(c3ccccn3)CC2)c2c(C)c(C(=O)N3CCN(c4ccc(F)cc4)CC3)sc2n1`, the pEC50 is 5.66.

Regarding `CCC1(C)CC(CCNCc2ccc(N(C)C)cc2)(c2ccc(F)cc2)CCO1` (stereo not drawn), the pEC50 was 5.54.

As for `CN(C)C(CNC(=O)c1cnc(Cl)c(Cl)c1)c1ccccc1` (stereo not drawn), the pEC50 is 6.26.

For `Cc1ccc(Cn2c(=N)n(CC(O)COc3ccccc3)c3ccccc32)cc1` (stereo not drawn), the EC50 result was “inactive”.

In the case of `O=C(C=P(c1ccccc1)(c1ccccc1)c1ccccc1)c1ccccc1-c1ccccc1C(=O)C=P(c1ccccc1)(c1ccccc1)c1ccccc1`, the EC50 was > 92.5 µM (inactive).

On to `Cc1ccc(OCC(=O)Nc2ccc(NC(=O)c3cccs3)cc2)c(C)c1`, for which the EC50 is > 10.3 µM (inactive).

As for `Cc1ccccc1Cn1c(O)c(N=NC(=S)Nc2ccccc2F)c2ccccc21`, the EC50 is > 92.5 µM (inactive).

In the case of `CCOC(=O)C1(CC2CC2)CCN(Cc2cnc(-c3ccccc3C)nc2)CC1`, the EC50 entry is “inactive”.

Take `Cc1cccc(NC(=S)NCC(c2cccnc2)N(C)C)c1` (stereo not drawn): the negative logarithm of the EC50 (pEC50) was 5.99.

For `CCc1ccc(Nc2n[n+](-c3ccccc3)c(-c3c(Cl)cccc3Cl)s2)cc1`, the pEC50 was 5.04.

As to `COc1ccc(C2Nc3ccccc3C(=O)N2c2ccc(F)cc2)cc1CSc1ccccn1` (stereo not drawn), the EC50 result is “inactive”.

As for `CCOC(=O)c1c(C)[nH]c(C(=O)OC/C(O)=C(\C#N)c2nc3ccccc3[nH]2)c1C`, the EC50 is > 92.5 µM (inactive).

`CN1C(CC(=O)Nc2ccc(Br)cc2)c2ccccc2CC1(C)C` (stereo not drawn): the pEC50 was 5.03.

In the case of `Cc1cc(C)cc(C(=O)N(CCc2ccccc2)C2=CC3CCC(C2)N3C)c1` (stereo not drawn), the negative logarithm of the EC50 (pEC50) is 5.23.

With `CC(C)n1ncc2c(C(=O)Nc3cccc(C#N)c3)cc(C3CC3)nc21`, the pEC50 was 5.44.

For `COCCCn1c(N)c(-c2nc3ccccc3n2C)c2nc3ccccc3nc21`, the pEC50 is 5.38.

`CCn1cc(CNCc2cn(-c3ccccc3C)nc2-c2ccc(OC)c(F)c2)cn1`: the pEC50 was 5.76.

Turning to `O=C(c1sc2ccccc2c1Cl)N(Cc1ccco1)C1CCS(=O)(=O)C1` (stereo not drawn), the EC50 entry is “inactive”.

With `CCOC(=O)C1(CCOc2ccccc2)CCN(Cc2ccc3c(c2)OCCO3)CC1`, the EC50 result is “inactive”.

Turning to `Cc1ccc(C)c(-n2cc(CNCCCn3cccn3)c(-c3ccccc3)n2)c1`, the pEC50 was 6.18.

On to `OCC1(CCc2ccccc2)CCN(Cc2ccccc2Cl)CC1`, for which the pEC50 was 5.04.

Turning to `COc1ccc(C(CNC(=O)C(Cc2ccccc2)NC(N)=O)N(C)C)cc1` (stereo not drawn), the EC50 entry was “inactive”.

As to `CN(C(=O)Cc1ccc(Cl)c(Cl)c1)C(CN1CCCC1)c1cccc(OCC(=O)O)c1` (stereo not drawn), the EC50 entry is “inactive”.

As for `Cc1cc(/C=C2\SC(=Nc3ccccc3)NC2=O)c(C)n1-c1ccc(S(N)(=O)=O)cc1`, the negative logarithm of the EC50 (pEC50) is 5.82.

Turning to `COC(=O)C1=CO[C@@H](C)[C@@H]2CN(CCc3c[nH]c4ccccc34)CC[C@H]12`, the pEC50 is 5.39.

With `Cc1ccc(C2(O)CN(c3ccccc3)C3=[N+]2CCS3)cc1` (stereo not drawn), the negative logarithm of the EC50 (pEC50) is 5.53.

For `CN1C2C=C(N(CCc3c[nH]c4ccccc34)C(=O)c3ccc(Cl)cc3)CC1CC2` (stereo not drawn), the pEC50 is 5.32.

For the compound `COc1ccc(C(CNC(=O)CCc2ccsc2)N(C)C)cc1` (stereo not drawn), the negative logarithm of the EC50 (pEC50) is 6.70.

As for `COc1ccccc1NC(=O)c1sc2nc(C)cc(C)c2c1N`, the EC50 is > 92.5 µM (inactive).

On to `COc1ccc(C2CC(c3ccc(OC)cc3)n3nc(NC(=O)c4cccs4)nc3N2)cc1` (stereo not drawn), for which the EC50 result was “inactive”.

For the compound `CN(C)C(CNC(=S)Nc1ccccc1Cl)c1cccnc1` (stereo not drawn), the negative logarithm of the EC50 (pEC50) was 6.28.

Take `CN(C)C(CNC(=O)c1ccc2ccccc2c1)c1ccco1` (stereo not drawn): the EC50 result was “inactive”.

In the case of `CN(C)C(CNC(=O)c1cccc(C(F)(F)F)c1)c1ccco1` (stereo not drawn), the EC50 was > 92.4 µM (inactive).

For `Cc1ccccc1OCC(O)Cn1c(=N)n(Cc2ccccc2)c2ccccc21` (stereo not drawn), the EC50 entry is “inactive”.

Consider `O=S(=O)(NC1CC1)c1ccc(S(=O)(=O)N2CCCC3(CCCCC3)C2)cc1`, for which the EC50 entry was “inactive”.

Take `CN1CCN(Cc2nc3ccccc3c(=O)n2Cc2nc(-c3ccc4ccccc4c3)cs2)CC1`: the EC50 was > 10.3 µM (inactive).

With `COc1cccc(CC2(CO)CCCN(Cc3ccccc3-c3ccco3)C2)c1` (stereo not drawn), the pEC50 was 5.05.

For the compound `O=C(OC1C2CCC1C1CN(CCc3ccccc3)CC12)c1ccccc1` (stereo not drawn), the EC50 entry was “inactive”.

Take `CC1CN(C)C(C)c2c1oc1ccc(N)cc21` (stereo not drawn): the EC50 entry was “inactive”.

Take `Cc1cc(N2CCN(c3ccc([N+](=O)[O-])c4cccnc34)CC2)c2ccccc2n1`: the EC50 was > 92.5 µM (inactive).

Consider `CCc1ccc(NC(=O)N(CCCN2CCOCC2)Cc2cccs2)cc1`, for which the EC50 entry is “inactive”.

As for `CCN(CC)Cc1cc(Nc2c3ccccc3nc3c4ccccc4n(C)c23)cc(CN(CC)CC)c1O`, the negative-log EC50 (pEC50) was 5.75.

`O=S(=O)(c1c(Cl)cc(Br)cc1Cl)N1CCN(C(=S)NC2CC2)CC1`: the negative logarithm of the EC50 (pEC50) is 5.22.

In the case of `CC[C@@H](C)[C@@H]1CN([C@@H](CN2CCC[C@H]2CN2C(N)=NC[C@H]2C(C)C)C(C)C)C(=N)N1CCc1ccc(Cl)c(Cl)c1`, the pEC50 was 5.63.

On to `COc1ccc(C(CNC(=O)c2ccc3c(c2)CCC3)N(C)C)cc1` (stereo not drawn), for which the pEC50 is 7.34.

As to `c1ccc(C2(N3CCCCC3)CCCCC2)cc1`, the negative-log EC50 (pEC50) was 6.02.

Regarding `CN(C)CCCN(C(=O)c1ccc(Br)s1)c1nc2cc3c(cc2s1)OCCO3`, the EC50 entry is “inactive”.

Take `CCc1ccc2nc(N(CCCN(C)C)C(=O)c3ccc(S(=O)(=O)N(C)C4CCCCC4)cc3)sc2c1`: the EC50 result is “inactive”.

`CC(=O)CSc1ccc(-c2nc3cc(C)c(C)cc3[nH]2)cn1`: the EC50 entry was “inactive”.

As to `CCOC(=O)C1(Cc2ccccc2)CCN(Cc2cccn2-c2cccnc2)CC1`, the EC50 entry was “inactive”.

Turning to `CCOC(=O)C1(CC2CCCCO2)CCN(Cc2c(C)cc(C)cc2-n2cccn2)CC1` (stereo not drawn), the pEC50 was 6.28.

Regarding `CN(C)c1ccc(C(CNC(=O)Cc2cccc3ccccc23)N(C)C)cc1` (stereo not drawn), the EC50 entry was “inactive”.

`CCCC(=O)NC(C)C(c1cccs1)N1CCN(c2ccccc2)CC1` (stereo not drawn): the EC50 entry is “inactive”.

On to `CCOC(=O)C1(Cc2ccccc2)CCN(Cc2cccn2-c2nccs2)CC1`, for which the EC50 entry was “inactive”.

Turning to `CC1(NC(=O)CC(c2ccccc2)(c2ccccc2)c2ccccc2)CCN(CCCc2ccccc2)C1=O` (stereo not drawn), the negative logarithm of the EC50 (pEC50) is 6.05.

For the compound `CC(=O)C1CCC2C3CC=C4CC(SC(=N)N)CCC4(C)C3CCC12C` (stereo not drawn), the negative logarithm of the EC50 (pEC50) is 5.02.

On to `CN(C)CCCN(C(=O)c1ccc(S(=O)(=O)N(C)Cc2ccccc2)cc1)c1nc2c(F)cccc2s1`, for which the pEC50 is 5.30.

In the case of `CN1CCN(c2ccc(NC(=O)c3ccc(-c4ccc(Br)cc4)o3)cc2)CC1`, the pEC50 was 5.72.

Turning to `COC(=O)C1=C(C)N(CCCC(=O)O)C(=O)NC1c1ccccc1OS(=O)(=O)c1ccc([N+](=O)[O-])cc1` (stereo not drawn), the pEC50 is 5.24.

For the compound `COc1ccc(C2C(C#N)=C(N)N(c3sc4c(c3C#N)CCCC4)C3=C2C(=O)CC(C)(C)C3)cc1` (stereo not drawn), the pEC50 is 5.34.

Consider `OCC1(CCc2ccccc2)CCN(Cc2cc(F)ccc2-n2cccn2)CC1`, for which the negative-log EC50 (pEC50) was 5.33.

Consider `COc1ccc2[nH]c3c(=O)n(/N=C/[C@H]4C(C)C=C(C)CC4C)c(=O)[nH]c3c2c1` (stereo partly drawn), for which the EC50 was > 92.5 µM (inactive).

For `Cc1ccc2c(C)c(C(=O)N(Cc3cccs3)C3CCS(=O)(=O)C3)oc2c1` (stereo not drawn), the pEC50 was 5.15.

`COc1ccc(-n2cc(CNCc3cccnc3)c(-c3cccc(F)c3)n2)cc1`: the EC50 result is “inactive”.

As to `Cn1c(-c2c(N)n(CCc3ccccc3)c3nc4ccccc4nc23)nc2ccccc21`, the negative logarithm of the EC50 (pEC50) was 5.50.

By EC50 is commonly meant the concentration that produces a half-maximal response. Broadly, the pEC50 is the EC50 on a negative log10 scale, so that one unit is a factor of ten.
